The source of these data is ChEMBL document CHEMBL1143820, “Mutations in 16S rRNA and ribosomal protein S5 associated with high-level spectinomycin resistance in Pasteurella multocida” (2007).

SMILES strings stand for the structures. ≈ marks a conversion by molar mass, not a printed value.

What all share (type): functional
The test system of assay [1] is Pasteurella multocida. Kind of assay: Antibacterial activity against Pasteurella multocida isolate 3 with operon A,B,C,D,E,F 16S rRNA C1192G transversion mutation by CLSI M31-A2 method.
In assay [2] the test system is Pasteurella multocida. As to the kind of experiment: Antibacterial activity against Pasteurella multocida isolate 15 by CLSI M31-A2 method.
Assay [3] concerns Pasteurella multocida. Kind of assay: Antibacterial activity against Pasteurella multocida isolate 2 with operon A,B,C,D,E,F 16S rRNA C1192G transversion mutation by CLSI M31-A2 method.
Assay [4] deals with Pasteurella multocida. As to the kind of experiment: Antibacterial activity against Pasteurella multocida isolate 1 with operon A,B,C,D,E,F 16S rRNA C1192G transversion mutation by CLSI M31-A2 method.
Assay [5] concerns Pasteurella multocida. As to the kind of experiment: Antibacterial activity against Pasteurella multocida isolate 13 with loss of 23K in S5 protein by CLSI M31-A2 method.
The test system of assay [6] is Pasteurella multocida. Kind of assay: Antibacterial activity against Pasteurella multocida isolate 11 with operon B,C 16S rRNA C1192G transversion mutation and S5 protein 32-SF-33>32I mutation by CLSI M31-A2 method.
The test system of assay [7] is Pasteurella multocida. Kind of assay: Antibacterial activity against Pasteurella multocida isolate 6 with operon A,B,C,D,E 16S rRNA C1192G transversion mutation by CLSI M31-A2 method.
The test system of assay [8] is Pasteurella multocida. Kind of assay: Antibacterial activity against Pasteurella multocida isolate 5 with operon A,B,C,D,E,F 16S rRNA C1192G transversion mutation by CLSI M31-A2 method.
In assay [9] the test system is Pasteurella multocida. Kind of assay: Antibacterial activity against Pasteurella multocida isolate 9 with operon B,C 16S rRNA C1192G transversion mutation and S5 protein 32-SF-33>32I mutation by CLSI M31-A2 method.
For assay [10], the system named is Pasteurella multocida. As to the kind of experiment: Antibacterial activity against Pasteurella multocida isolate 8 with operon A,B,C,D,E 16S rRNA C1192G transversion mutation by CLSI M31-A2 method.
Assay [11] has as its system Pasteurella multocida. Kind of assay: Antibacterial activity against Pasteurella multocida isolate 7 with operon A,B,C,D,E 16S rRNA C1192G transversion mutation by CLSI M31-A2 method.
Assay [12] concerns Pasteurella multocida. As to the kind of experiment: Antibacterial activity against Pasteurella multocida isolate 12 with operon B,C 16S rRNA C1192G transversion mutation and S5 protein 32-SF-33>32I mutation by CLSI M31-A2 method.
The test system of assay [13] is Pasteurella multocida. As to the kind of experiment: Antibacterial activity against Pasteurella multocida isolate 4 with operon A,B,C,D,E,F 16S rRNA C1192G transversion mutation by CLSI M31-A2 method.
For assay [14], the system named is Pasteurella multocida. As to the kind of experiment: Antibacterial activity against Pasteurella multocida isolate 16 by CLSI M31-A2 method.
Assay [15] deals with Pasteurella multocida. Kind of assay: Antibacterial activity against Pasteurella multocida isolate 14 by CLSI M31-A2 method.
The subject of assay [16] is Pasteurella multocida. Kind of assay: Antibacterial activity against Pasteurella multocida isolate 17 by CLSI M31-A2 method.
Assay [17] deals with Pasteurella multocida. Kind of assay: Antibacterial activity against Pasteurella multocida isolate 10 with operon B,C 16S rRNA C1192G transversion mutation and S5 protein 32-SF-33>32I mutation by CLSI M31-A2 method.

As to `CN[C@@H]1[C@H](O)[C@H](NC)[C@H]2O[C@@]3(O)C(=O)C[C@@H](C)O[C@H]3O[C@@H]2[C@H]1O` [SPECTINOMYCIN], the MIC in the assay with Pasteurella multocida [1] was > 8190 µg/mL; against Pasteurella multocida [2] it was 16 µg/mL (≈ 0.0481 mM); against Pasteurella multocida [3], > 8190 µg/mL; against Pasteurella multocida [4], > 8190 µg/mL; in the assay on Pasteurella multocida [5], 4100 µg/mL (≈ 12.3 mM); against Pasteurella multocida [6], > 8190 µg/mL. The MIC in the assay with Pasteurella multocida [7] is 4100 µg/mL (≈ 12.3 mM); against Pasteurella multocida [8], > 8190 µg/mL; with Pasteurella multocida [9], 4100 µg/mL (≈ 12.3 mM); with Pasteurella multocida [10], 4100 µg/mL (≈ 12.3 mM); against Pasteurella multocida [11], 8190 µg/mL (≈ 24.6 mM); with Pasteurella multocida [12] it was > 8190 µg/mL. Moreover, the MIC with Pasteurella multocida [13] is > 8190 µg/mL; in the assay on Pasteurella multocida [14], 16 µg/mL (≈ 0.0481 mM); in the assay with Pasteurella multocida [15], 16 µg/mL (≈ 0.0481 mM); with Pasteurella multocida [16], 16 µg/mL (≈ 0.0481 mM); against Pasteurella multocida [17], > 8190 µg/mL.
